We go through 11 compounds from ChEMBL document CHEMBL5120937, “Design, Synthesis, and Biological Activity of l-1'-Homologated Adenosine Derivatives” (ACS Med Chem Lett, 2022).

Experiment [1] relates to Mesenchymal stem cells. In words: Induction of adipogenesis in human differentiated BMMSC cells assessed as fold increase in adiponectin production at 10 uM measured on 5 day in presence of IDX induction medium by ELISA. Type of experiment: functional.
In experiment [2] the target is T1, Peroxisome proliferator-activated receptor alpha (Homo sapiens) (UniProt Q07869).
T1 sequence (whole entry): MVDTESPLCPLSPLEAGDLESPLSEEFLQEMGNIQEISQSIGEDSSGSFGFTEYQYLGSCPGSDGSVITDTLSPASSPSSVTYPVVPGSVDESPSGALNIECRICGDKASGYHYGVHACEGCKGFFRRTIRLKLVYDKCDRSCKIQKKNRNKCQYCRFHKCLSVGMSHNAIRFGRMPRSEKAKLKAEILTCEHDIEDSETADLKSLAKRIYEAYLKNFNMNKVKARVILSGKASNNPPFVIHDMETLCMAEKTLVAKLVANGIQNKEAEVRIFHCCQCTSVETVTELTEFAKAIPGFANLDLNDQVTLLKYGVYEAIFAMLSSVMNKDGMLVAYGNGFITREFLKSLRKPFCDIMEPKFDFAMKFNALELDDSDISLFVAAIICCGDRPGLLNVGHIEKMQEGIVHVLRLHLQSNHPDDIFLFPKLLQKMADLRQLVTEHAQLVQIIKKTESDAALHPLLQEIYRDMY
In words: Binding affinity to PPARalpha (unknown origin) at 10 uM by TR-FRET based LanthaScreen competitive binding assay relative to control. A general note: In TR-FRET formats the signal depends on donor and acceptor labels being close together.

Experiment [3] has as its target T2, Peroxisome proliferator-activated receptor gamma (Homo sapiens) (UniProt P37231).
T2 sequence (whole entry): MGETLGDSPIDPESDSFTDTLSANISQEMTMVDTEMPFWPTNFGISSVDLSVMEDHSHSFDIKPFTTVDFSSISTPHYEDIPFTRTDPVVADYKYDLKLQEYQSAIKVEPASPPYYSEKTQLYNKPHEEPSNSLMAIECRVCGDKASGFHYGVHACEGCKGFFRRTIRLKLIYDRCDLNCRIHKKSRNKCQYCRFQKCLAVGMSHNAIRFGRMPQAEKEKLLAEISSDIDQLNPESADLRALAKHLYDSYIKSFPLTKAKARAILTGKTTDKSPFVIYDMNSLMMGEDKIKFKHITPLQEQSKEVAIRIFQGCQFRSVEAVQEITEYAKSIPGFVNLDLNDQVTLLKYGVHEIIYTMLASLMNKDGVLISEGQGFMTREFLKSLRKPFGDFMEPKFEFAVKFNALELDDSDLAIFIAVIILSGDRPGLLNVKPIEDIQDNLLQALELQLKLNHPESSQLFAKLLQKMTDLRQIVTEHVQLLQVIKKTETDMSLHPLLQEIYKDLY
In words: Binding affinity to PPARgamma (unknown origin) at 10 uM by TR-FRET based LanthaScreen competitive binding assay relative to control.

Experiment [4] addresses T3, Peroxisome proliferator-activated receptor delta (Homo sapiens) (UniProt Q03181).
T3 sequence (whole entry): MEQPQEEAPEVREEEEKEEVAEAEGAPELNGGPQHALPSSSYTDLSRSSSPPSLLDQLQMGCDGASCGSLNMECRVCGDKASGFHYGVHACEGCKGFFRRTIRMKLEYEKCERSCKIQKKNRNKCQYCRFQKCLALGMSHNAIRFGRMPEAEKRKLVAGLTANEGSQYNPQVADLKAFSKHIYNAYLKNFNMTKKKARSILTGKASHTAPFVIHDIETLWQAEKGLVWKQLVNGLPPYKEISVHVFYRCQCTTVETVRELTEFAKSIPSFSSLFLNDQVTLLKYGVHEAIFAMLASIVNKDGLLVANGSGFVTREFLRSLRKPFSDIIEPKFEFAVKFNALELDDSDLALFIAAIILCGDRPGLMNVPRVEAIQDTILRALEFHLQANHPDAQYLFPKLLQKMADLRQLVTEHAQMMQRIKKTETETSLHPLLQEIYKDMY
In words: Binding affinity to PPARdelta (unknown origin) at 10 uM by TR-FRET based LanthaScreen competitive binding assay relative to control.

Experiment [5] deals with T4, Peroxisome proliferator-activated receptor delta (Homo sapiens, UniProt Q03181).
T4 sequence (Q03181 whole entry): T3 sequence (whole entry)
Description: Binding affinity to PPARdelta (unknown origin) by TR-FRET based LanthaScreen competitive binding assay

Experiment [6] relates to Mesenchymal stem cells. In words: cells. The conditions noted are these: Homo sapiens, 120 h.
Description: Induction of adipogenesis in human differentiated BMMSC cells assessed as increase in adiponectin secretion and measured on 5 day in presence of IDX induction medium by ELISA

As to `COc1ccc(Cl)cc1C(=O)NCCc1ccc(S(=O)(=O)NC(=O)NC2CCCCC2)cc1` [GLYBURIDE], the “fold change (FC)” value in experiment [1] stood at 6.2.

On to `O[C@H]1[C@@H](O)CO[C@@H]1Cn1cnc2c(NCc3cccc(Br)c3)ncnc21`, for which the Activity in experiment [2] came to 3.8%; in experiment [3], 12.5%; in experiment [4], 1.2%.

In the case of `O[C@H]1[C@@H](O)CO[C@@H]1Cn1cnc2c(NCc3cccc(Cl)c3)nc(Cl)nc21`, the Activity in experiment [2] is 19.1%; in experiment [3] it was 10.7%; in experiment [4] (filed as antagonist), 46.3%.

Turning to `O[C@H]1[C@@H](O)CO[C@@H]1Cn1cnc2c(NCc3cccc(Br)c3)nc(Cl)nc21`, the Activity in experiment [2] was 8.7%; in experiment [3] it was 25.5%. In addition, the affinity in experiment [5] corresponds to a Ki of 3.4 µM.

Consider `O[C@H]1[C@@H](O)CO[C@@H]1Cn1cnc2c(NCc3cccc(F)c3)ncnc21`, for which the Activity in experiment [2] is 7.6%; in experiment [3], 11.5%; in experiment [4], 8%.

Take `CCc1ccc(CCOc2ccc(CC3SC(=O)NC3=O)cc2)nc1` (stereo unspecified) [PIOGLITAZONE]: the “fold change (FC)” value in experiment [1] is listed as 7.8. The EC50 (usually the concentration that produces a half-maximal response) in experiment [6] was 0.9 µM.

`O[C@H]1[C@@H](O)CO[C@@H]1Cn1cnc2c(NCc3cccc(F)c3)nc(Cl)nc21`: the Activity in experiment [2] came out at 14.5%; in experiment [3] it was 6.3%; in experiment [4] it was 29.5%.

Take `O[C@H]1[C@@H](O)CO[C@@H]1Cn1cnc2c(NCc3cccc(Cl)c3)ncnc21`: the Activity in experiment [2] is 3.1%; in experiment [3] it was 5.9%; in experiment [4], 21.5%.

As to `O[C@@H]1[C@H](O)CO[C@H]1Cn1cnc2c(NCc3cccc(I)c3)nc(Cl)nc21`, in experiment [2], the Activity came out at 3.9%.

As for `O[C@H]1[C@@H](O)CO[C@@H]1Cn1cnc2c(NCc3cccc(I)c3)nc(Cl)nc21`, in experiment [2], the Activity came to 17.2%.

On to `O[C@H]1[C@@H](O)CO[C@@H]1Cn1cnc2c(NCc3cccc(I)c3)ncnc21`, for which the Activity amounted to 13.2% in experiment [2], 3.9% in experiment [3] and 16.3% in experiment [4].
